This is an account of results in PMC4620497 (Scientific Reports, 2015).

For one assay, the target named is T1, DLK (Homo sapiens, UniProt Q12852).
T1 sequence (Q12852 1-859): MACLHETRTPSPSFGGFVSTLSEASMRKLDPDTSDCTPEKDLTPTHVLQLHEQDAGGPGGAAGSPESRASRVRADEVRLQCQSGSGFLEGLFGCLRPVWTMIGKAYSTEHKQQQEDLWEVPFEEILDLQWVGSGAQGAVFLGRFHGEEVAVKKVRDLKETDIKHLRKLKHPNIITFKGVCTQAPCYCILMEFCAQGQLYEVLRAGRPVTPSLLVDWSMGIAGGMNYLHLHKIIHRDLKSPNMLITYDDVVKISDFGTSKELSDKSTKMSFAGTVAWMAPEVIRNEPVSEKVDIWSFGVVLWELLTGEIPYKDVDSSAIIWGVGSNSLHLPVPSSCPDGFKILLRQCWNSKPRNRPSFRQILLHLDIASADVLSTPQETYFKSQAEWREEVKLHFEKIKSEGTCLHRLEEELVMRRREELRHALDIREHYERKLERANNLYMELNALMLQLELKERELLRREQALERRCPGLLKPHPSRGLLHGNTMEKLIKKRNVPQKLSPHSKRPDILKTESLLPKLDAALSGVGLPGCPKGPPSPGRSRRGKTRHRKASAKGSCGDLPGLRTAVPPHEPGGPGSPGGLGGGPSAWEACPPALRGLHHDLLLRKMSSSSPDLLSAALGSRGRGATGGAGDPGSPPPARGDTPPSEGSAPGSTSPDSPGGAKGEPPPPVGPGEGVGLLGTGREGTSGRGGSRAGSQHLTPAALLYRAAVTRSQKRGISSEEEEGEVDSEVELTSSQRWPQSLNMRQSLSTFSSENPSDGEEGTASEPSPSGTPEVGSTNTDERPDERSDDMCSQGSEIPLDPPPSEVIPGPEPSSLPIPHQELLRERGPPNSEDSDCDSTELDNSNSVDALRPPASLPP
The arrangement: method as in earlier work. The settings on record: Table S1; cited from earlier work.

The target of assay [1] is T2, RPS6KA5(Kin.Dom.1-N-terminal) (Homo sapiens, UniProt O75582).
T2 construct: RPS6KA5(Kin.Dom.1-N-terminal); purchased DiscoveRx KINOMEscan (Ambit Biosciences)
Put plainly: KINOMEscan panel screen. In kind it is binding. The settings on record: read-out: Percent Control(%).

The target in the next assay is T3, CSF1R-autoinhibited (Homo sapiens, UniProt P07333).
T3 construct: purchased DiscoveRx KINOMEscan (Ambit Biosciences)
Put plainly: KINOMEscan panel screen. It is filed as binding. The settings on record: read-out: Percent Control(%).

In another assay the target is T4, LYN (Homo sapiens, UniProt P07948).
T4 construct: purchased DiscoveRx KINOMEscan (Ambit Biosciences)
Put plainly: KINOMEscan panel screen. In kind it is binding. The settings on record: read-out: Percent Control(%).

In a further assay the target is T5, p38-delta (Homo sapiens, UniProt O15264).
T5 construct: purchased DiscoveRx KINOMEscan (Ambit Biosciences)
Put plainly: KINOMEscan panel screen. It is filed as binding. The settings on record: read-out: Percent Control(%).

The target of a further assay is T6, EPHB2 (Homo sapiens, UniProt P29323).
T6 construct: purchased DiscoveRx KINOMEscan (Ambit Biosciences)
Put plainly: KINOMEscan panel screen. The settings on record: read-out: Percent Control(%). It is filed as binding.

In the next assay the test system is Molm-13. Put plainly: MTT cell viability assay. The settings on record: Homo sapiens, MOLM-13, 72 h. A general note: Tetrazolium dyes change colour on reduction, which living cells bring about.
Another assay addresses T7, BMPR2 (Homo sapiens, UniProt Q13873).
T7 construct: purchased DiscoveRx KINOMEscan (Ambit Biosciences)
Put plainly: KINOMEscan panel screen. It is filed as binding. The settings on record: read-out: Percent Control(%).

For another assay, the target named is T8, FGFR2 (Homo sapiens, UniProt P21802).
T8 construct: purchased DiscoveRx KINOMEscan (Ambit Biosciences)
Put plainly: KINOMEscan panel screen. In kind it is binding. The settings on record: read-out: Percent Control(%).

The target in a further assay is T9, PIK3CA(Q546K) (Homo sapiens, UniProt P42336, Q546K).
T9 construct: purchased DiscoveRx KINOMEscan (Ambit Biosciences)
Put plainly: KINOMEscan panel screen. In kind it is binding. The settings on record: read-out: Percent Control(%).

Another assay addresses T10, MARK4 (Homo sapiens, UniProt Q96L34).
T10 construct: purchased DiscoveRx KINOMEscan (Ambit Biosciences)
Put plainly: KINOMEscan panel screen. In kind it is binding. The settings on record: read-out: Percent Control(%).

The target of the next assay is T11, PFTAIRE2 (Homo sapiens, UniProt Q96Q40).
T11 construct: purchased DiscoveRx KINOMEscan (Ambit Biosciences)
Put plainly: KINOMEscan panel screen. It is filed as binding. The settings on record: read-out: Percent Control(%).

The next assay concerns the target T12, CDC2L1 (Homo sapiens, UniProt P21127).
T12 construct: purchased DiscoveRx KINOMEscan (Ambit Biosciences)
Put plainly: KINOMEscan panel screen. In kind it is binding. The settings on record: read-out: Percent Control(%).

A further assay concerns the target ERN1 (Homo sapiens, UniProt O75460). Put plainly: KINOMEscan kinase binding assay (Kd). The settings on record: Table S1. An excerpt: (§1) In vitro KINOMEscan kinase binding assays (Ambit Biosciences) were employed to determine the binding affinity (Kd) of compounds[41][42].
(§2) compound 1. The y have very similar spectrum of activity in enz ymatic and cellular
(§3) levels. Both of them have the ability to inhibit Wnt/β -catenin si gnalin g. However, in […]

A further assay deals with T13, PAK2 (Homo sapiens, UniProt Q13177).
T13 construct: purchased DiscoveRx KINOMEscan (Ambit Biosciences)
Put plainly: KINOMEscan kinase binding assay (Kd). The settings on record: Table S1.
Excerpt: as §1, §2, §3

The next assay concerns the target T14, IGF1R (Homo sapiens, UniProt P08069).
T14 construct: DNA tag (qPCR read-out); purchased Ambit Biosciences (KINOMEscan service)
Put plainly: KINOMEscan kinase binding assay (Kd). The settings on record: Table S1.
Excerpt: as §1, §2, §3

The test system of a further assay is WM2664. Put plainly: MTT cell viability assay. The settings on record: Homo sapiens, WM 266-4, 72 h.
The target in a further assay is T15, PRKG1 (Homo sapiens, UniProt Q13976).
T15 construct: purchased DiscoveRx KINOMEscan (Ambit Biosciences)
Put plainly: KINOMEscan panel screen. In kind it is binding. The settings on record: read-out: Percent Control(%).

Another assay concerns the target T16, KIT(L576P) (Homo sapiens, UniProt P10721, L576P).
T16 construct: purchased DiscoveRx KINOMEscan (Ambit Biosciences)
Put plainly: KINOMEscan panel screen. In kind it is binding. The settings on record: read-out: Percent Control(%).

Another assay deals with T17, RIOK1 (Homo sapiens, UniProt Q9BRS2).
T17 construct: purchased DiscoveRx KINOMEscan (Ambit Biosciences)
Put plainly: KINOMEscan panel screen. It is filed as binding. The settings on record: read-out: Percent Control(%).

For the next assay, the system named is H441. Put plainly: MTT cell viability assay. The settings on record: Homo sapiens, NCI-H441, 72 h.
In a further assay the target is T18, PKN1 (Homo sapiens, UniProt Q16512).
T18 construct: purchased DiscoveRx KINOMEscan (Ambit Biosciences)
Put plainly: KINOMEscan panel screen. In kind it is binding. The settings on record: read-out: Percent Control(%).

The next assay has as its target T19, MAP4K5 (Homo sapiens, UniProt Q9Y4K4).
T19 construct: purchased DiscoveRx KINOMEscan (Ambit Biosciences)
Put plainly: KINOMEscan panel screen. In kind it is binding. The settings on record: read-out: Percent Control(%).

Read-outs that look alike come from different tables or passages of the source.

T11 sequence (Q96Q40 whole entry): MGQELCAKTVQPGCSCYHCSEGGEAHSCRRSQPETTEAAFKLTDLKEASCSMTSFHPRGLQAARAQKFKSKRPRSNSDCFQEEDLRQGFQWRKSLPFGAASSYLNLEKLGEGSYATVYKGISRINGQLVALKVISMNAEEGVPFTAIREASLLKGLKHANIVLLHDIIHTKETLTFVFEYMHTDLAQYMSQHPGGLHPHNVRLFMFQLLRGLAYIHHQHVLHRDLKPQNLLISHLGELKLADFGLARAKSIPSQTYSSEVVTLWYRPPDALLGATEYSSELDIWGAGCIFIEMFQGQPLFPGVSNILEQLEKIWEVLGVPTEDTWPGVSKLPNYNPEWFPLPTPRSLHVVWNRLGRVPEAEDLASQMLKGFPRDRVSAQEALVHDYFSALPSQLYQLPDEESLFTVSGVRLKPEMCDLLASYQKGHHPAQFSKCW
Sequence of ERN1 (O75460 19-977): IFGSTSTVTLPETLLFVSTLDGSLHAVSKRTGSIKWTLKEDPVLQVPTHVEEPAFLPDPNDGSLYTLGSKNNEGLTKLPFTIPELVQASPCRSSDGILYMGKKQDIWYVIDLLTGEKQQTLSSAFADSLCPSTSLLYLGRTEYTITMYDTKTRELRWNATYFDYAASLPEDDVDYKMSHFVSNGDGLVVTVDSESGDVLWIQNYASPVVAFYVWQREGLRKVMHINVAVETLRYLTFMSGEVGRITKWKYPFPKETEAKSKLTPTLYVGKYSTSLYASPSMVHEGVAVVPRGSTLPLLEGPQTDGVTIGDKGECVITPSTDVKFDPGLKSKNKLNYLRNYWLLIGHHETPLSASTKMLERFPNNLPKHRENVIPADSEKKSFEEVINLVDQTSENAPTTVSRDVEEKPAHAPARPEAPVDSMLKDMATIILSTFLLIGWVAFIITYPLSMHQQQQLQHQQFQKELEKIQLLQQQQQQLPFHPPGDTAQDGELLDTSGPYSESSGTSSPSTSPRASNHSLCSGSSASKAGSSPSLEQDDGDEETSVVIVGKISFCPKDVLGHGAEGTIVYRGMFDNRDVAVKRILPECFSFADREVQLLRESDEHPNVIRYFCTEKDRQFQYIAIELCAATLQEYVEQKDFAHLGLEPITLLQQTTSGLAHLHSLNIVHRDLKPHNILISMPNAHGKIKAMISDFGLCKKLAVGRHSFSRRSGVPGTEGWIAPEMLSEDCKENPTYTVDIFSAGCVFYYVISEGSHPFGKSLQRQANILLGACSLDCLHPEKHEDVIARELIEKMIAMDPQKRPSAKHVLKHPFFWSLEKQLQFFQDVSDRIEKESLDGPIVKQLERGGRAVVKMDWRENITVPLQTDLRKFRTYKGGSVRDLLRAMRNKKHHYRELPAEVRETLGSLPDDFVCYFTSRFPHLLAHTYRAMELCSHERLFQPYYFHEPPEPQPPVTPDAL
T17 sequence (Q9BRS2 whole entry): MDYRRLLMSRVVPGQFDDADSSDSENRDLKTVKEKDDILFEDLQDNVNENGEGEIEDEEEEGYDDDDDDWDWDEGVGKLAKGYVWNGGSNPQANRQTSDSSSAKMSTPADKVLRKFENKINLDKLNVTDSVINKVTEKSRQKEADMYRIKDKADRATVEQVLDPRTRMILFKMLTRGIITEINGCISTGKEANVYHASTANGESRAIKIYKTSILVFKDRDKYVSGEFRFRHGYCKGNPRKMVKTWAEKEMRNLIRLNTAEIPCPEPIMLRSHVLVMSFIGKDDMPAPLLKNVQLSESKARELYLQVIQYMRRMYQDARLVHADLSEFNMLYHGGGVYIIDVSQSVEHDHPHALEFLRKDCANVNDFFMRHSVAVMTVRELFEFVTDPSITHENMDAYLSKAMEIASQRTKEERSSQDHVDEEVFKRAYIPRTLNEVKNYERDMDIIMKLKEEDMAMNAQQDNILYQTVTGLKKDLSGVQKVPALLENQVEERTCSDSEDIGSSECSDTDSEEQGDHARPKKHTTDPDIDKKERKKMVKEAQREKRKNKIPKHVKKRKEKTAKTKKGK
T10 sequence (Q96L34 whole entry): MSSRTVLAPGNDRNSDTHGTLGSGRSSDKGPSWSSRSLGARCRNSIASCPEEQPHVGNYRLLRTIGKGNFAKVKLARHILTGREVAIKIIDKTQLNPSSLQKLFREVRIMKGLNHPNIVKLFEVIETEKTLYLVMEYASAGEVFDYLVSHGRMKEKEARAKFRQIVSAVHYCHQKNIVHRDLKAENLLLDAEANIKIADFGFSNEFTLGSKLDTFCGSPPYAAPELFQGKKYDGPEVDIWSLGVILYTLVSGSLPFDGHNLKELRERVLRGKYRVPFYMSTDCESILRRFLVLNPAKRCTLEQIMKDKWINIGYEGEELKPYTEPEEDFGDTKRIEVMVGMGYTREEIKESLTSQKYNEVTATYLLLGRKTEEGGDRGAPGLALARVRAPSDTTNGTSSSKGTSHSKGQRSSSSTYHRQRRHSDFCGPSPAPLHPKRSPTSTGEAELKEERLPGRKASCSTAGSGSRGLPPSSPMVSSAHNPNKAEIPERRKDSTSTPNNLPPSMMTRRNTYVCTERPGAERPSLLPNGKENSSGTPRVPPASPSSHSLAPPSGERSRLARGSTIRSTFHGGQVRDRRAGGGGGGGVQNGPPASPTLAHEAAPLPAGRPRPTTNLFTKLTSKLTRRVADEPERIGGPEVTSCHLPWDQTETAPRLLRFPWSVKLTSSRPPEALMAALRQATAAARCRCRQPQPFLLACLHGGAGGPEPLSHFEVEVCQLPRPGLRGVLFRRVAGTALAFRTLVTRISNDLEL
T5 sequence (O15264 whole entry): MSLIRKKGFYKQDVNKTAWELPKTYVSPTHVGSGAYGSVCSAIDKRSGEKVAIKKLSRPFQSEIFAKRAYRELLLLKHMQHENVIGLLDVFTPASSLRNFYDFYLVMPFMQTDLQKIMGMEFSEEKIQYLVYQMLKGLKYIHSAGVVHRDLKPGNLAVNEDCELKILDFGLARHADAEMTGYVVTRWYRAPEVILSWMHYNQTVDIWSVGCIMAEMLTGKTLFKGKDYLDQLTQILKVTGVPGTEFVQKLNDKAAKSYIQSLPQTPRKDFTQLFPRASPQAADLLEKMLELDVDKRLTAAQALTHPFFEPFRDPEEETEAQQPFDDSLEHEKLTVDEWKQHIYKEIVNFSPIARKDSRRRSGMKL
T15 sequence (Q13976 whole entry): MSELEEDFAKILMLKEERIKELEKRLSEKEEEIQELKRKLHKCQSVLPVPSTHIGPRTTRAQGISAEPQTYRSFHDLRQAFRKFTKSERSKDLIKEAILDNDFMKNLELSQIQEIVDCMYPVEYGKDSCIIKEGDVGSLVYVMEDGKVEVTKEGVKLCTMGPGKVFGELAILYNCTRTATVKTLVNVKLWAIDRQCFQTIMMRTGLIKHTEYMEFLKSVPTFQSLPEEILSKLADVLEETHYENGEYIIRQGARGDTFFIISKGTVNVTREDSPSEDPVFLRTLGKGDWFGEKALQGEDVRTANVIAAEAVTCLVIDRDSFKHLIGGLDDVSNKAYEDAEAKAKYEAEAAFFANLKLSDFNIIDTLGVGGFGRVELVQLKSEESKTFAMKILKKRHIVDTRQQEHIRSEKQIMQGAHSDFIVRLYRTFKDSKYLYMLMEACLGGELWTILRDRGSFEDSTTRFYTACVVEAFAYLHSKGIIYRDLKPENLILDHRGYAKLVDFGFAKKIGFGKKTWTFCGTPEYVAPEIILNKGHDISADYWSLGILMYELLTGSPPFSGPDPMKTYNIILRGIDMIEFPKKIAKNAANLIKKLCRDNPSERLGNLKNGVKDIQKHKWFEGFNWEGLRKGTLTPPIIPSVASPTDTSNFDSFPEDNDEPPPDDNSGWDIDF
T9 sequence (P42336 whole entry Q546K): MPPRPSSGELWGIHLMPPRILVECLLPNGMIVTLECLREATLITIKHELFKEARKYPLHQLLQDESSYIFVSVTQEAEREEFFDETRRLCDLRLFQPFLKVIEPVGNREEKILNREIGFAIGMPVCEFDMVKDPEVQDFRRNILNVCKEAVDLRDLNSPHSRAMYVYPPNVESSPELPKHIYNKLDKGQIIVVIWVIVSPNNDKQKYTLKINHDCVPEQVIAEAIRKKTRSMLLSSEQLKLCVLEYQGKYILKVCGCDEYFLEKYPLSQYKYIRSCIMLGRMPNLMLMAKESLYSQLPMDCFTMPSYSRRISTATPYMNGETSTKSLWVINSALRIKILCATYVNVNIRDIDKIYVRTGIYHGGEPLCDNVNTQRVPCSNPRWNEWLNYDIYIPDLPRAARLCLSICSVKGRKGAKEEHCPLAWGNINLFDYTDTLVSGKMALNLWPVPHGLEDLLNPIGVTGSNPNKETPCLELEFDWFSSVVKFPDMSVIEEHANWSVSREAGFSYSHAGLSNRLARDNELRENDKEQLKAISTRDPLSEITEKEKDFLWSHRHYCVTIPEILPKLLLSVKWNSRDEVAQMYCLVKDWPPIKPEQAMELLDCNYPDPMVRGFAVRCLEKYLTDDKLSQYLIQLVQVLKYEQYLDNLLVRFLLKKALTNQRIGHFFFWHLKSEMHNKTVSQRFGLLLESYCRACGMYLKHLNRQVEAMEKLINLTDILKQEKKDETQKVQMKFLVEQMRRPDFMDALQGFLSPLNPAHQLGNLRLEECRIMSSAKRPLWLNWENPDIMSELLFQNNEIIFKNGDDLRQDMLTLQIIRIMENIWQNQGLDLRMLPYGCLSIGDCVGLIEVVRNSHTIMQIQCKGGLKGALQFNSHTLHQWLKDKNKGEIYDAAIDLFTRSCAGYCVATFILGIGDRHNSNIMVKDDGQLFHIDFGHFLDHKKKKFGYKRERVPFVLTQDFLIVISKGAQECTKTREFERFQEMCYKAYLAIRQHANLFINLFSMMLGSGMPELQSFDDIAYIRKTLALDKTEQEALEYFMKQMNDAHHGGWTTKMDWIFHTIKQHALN

For `O=C(Nc1ccc(Oc2ncnc3[nH]ncc23)cc1)Nc1ccc(Cl)c(C(F)(F)F)c1` [Compound 1, 1-(4-(1H-pyrazolo[3,4-d]pyrimidin-4-yloxy)phenyl)-3-(4-chloro-3-(trifluoromethyl)phenyl)urea], the IC50 at DLK was above 10 µM.
With `CC(C)(C)c1cc(NC(=O)Nc2ccc(Oc3ncnc4[nH]ncc34)c(F)c2)no1` [SKLB-677, 1-(4-(1H-pyrazolo[3,4-d]pyrimidin-4-yloxy)-3-fluorophenyl)-3-(5-tert-butylisoxazol-3-yl)urea], the remaining binding at 10 µM came out at 66% in [1]; 0.1% on CSF1R-autoinhibited; 2% on LYN; 10% at p38-delta; 5.2% on EPHB2; 14% on BMPR2. Further, the remaining binding at 10 µM was 2% at FGFR2; 100% at PIK3CA(Q546K); 70% at MARK4; 0.85% at PFTAIRE2; 66% on CDC2L1; 86% at PRKG1. The remaining binding at 10 µM on KIT(L576P) was determined as 0%; at RIOK1, 89%; at PKN1, 82%; at MAP4K5, 2%. In addition, the half-maximal inhibitory concentration (IC50) was 0.000116 µM in the assay with Molm-13, 0.000116 µM in the assay on Molm-13 (read-out: Cell viability IC50), above 10 µM with WM2664 and above 10 µM with H441. The Kd on ERN1, at PAK2 and on IGF1R was above 10 µM in each case.

In general, IC50 refers to the midpoint of a concentration-inhibition curve. Broadly, the Kd is the constant that tells how readily two partners part at equilibrium. A low value points to higher affinity.
